Experimental data reported in US20260265208A1, “TETRALINE, PHENYLCYCLOBUTANE AND PHENYLCYCLOPENTANE ANALOGS AS RXFP1 AGONISTS” (BRISTOL-MYERS SQUIBB COMPANY, priority 2021, published 2026).

Test system: not given
Assay: not given
Conditions: intravenous (IV) formulation; cited from earlier work

| Molecule | first-phase pharmacokinetic half-life [min] |
| --- | --- |
| Serelaxin | 5.4 |

Molecular target: T1, human RXFP1 (Homo sapiens, UniProt Q9HBX9)
T1 construct: expressed in transfected cells
T1 sequence (Q9HBX9 1-757): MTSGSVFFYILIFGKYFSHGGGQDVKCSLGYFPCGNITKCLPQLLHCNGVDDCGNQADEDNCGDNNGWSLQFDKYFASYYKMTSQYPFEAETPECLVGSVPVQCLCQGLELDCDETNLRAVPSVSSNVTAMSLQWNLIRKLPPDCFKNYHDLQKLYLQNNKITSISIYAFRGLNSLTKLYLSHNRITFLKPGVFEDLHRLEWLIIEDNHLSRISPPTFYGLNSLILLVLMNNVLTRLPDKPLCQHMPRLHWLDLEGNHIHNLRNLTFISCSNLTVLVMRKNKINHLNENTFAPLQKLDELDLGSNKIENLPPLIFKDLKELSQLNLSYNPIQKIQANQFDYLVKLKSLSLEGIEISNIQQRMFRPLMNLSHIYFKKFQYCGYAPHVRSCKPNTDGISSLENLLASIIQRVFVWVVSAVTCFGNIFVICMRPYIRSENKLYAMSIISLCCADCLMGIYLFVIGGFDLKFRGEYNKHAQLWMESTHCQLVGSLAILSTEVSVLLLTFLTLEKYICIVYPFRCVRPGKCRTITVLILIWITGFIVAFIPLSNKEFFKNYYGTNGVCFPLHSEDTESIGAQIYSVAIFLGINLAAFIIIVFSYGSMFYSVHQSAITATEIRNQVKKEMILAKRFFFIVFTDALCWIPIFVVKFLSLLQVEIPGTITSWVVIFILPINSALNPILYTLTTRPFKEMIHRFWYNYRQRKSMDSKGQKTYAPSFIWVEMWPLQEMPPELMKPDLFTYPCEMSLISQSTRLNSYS
Assay: hRXFP1 HEK293 cAMP assay (HTRF)
Type: cell-based
Conditions: HEK293 cells stably expressing human RXFP1; phenylcyclobutane examples
Protocol: RXFP1 Cyclic Adenosine Monophosphate (cAMP) Assays. Human embryonic kidney cells 293 (HEK293) cells and HEK293 cells stably expressing human RXFP1, were cultured in MEM medium supplemented with 10% qualified FBS, and 300 μg/ml hygromycin (Life Technologies). Cells were dissociated and suspended in assay buffer. The assay buffer was HBSS buffer (with calcium and magnesium) containing 20 mM HEPES, 0.05% BSA, and 0.5 mM IBMX. Cells (3000 cells per well, except 1500 cell per well for HEK293 cells stably expressing human RXFP1) were added to 384-well Proxiplates (Perkin-Elmer). Cells were immediately treated with test compounds in DMSO (2% final) at final concentrations in the range of 0.010 nM to 50 μM. Cells were incubated for 30 min at room temperature. The level of intracellular cAMP was determined using the HTRF HiRange cAMP assay reagent kit (Cisbio) according to manufacturer's instructions. Solutions of cryptate conjugated anti-cAMP and d2 fluorophore-labelled cAMP were made in a supplied lysis buffer separately. Upon completion of the reaction, the cells were lysed with equal volume of the d2-cAMP solution and anti-cAMP solution. After a 1 h room temperature incubation, time-resolved fluorescence intensity was measured using the Envision (Perkin-Elmer) at 400 nm excitation and dual emission at 590 nm and 665 nm. A calibration curve was constructed with an external cAMP standard at concentrations ranging from 2.7 μM to 0.1 μM by plotting the fluorescent intensity ratio from 665 nm emission to the intensity from the 590 nm emission against cAMP concentrations. The potency and activity of a compound to […] cAMP production was then determined by fitting to a 4-parametric logistic equation from a plot of cAMP level versus compound concentrations.
The examples disclosed below were tested in the human RXFP1 (hRXFP1) HEK293 cAMP assay described above and found to have agonist activity. Tables 1-3, lists EC50 values in the hRXFP1 HEK293 cAMP assay measured for the examples.

| EC50 [nM] | Molecule |
| --- | --- |
| 2400 | COc1ccc(-c2cc(C(=O)O)ccc2F)cc1C(=O)Nc1cc2c(cc1C(=O)Nc1ccc(F)c(C(F)(F)F)c1)CC2 [Example 21] |
| 660 | COc1ccc(-c2cc(C(O)C(=O)O)ccc2F)cc1C(=O)Nc1cc2c(cc1C(=O)Nc1ccc(F)c(C(F)(F)F)c1)CC2 (stereo not shown) [Example 23, 2-(6-fluoro-3′-((4-((4-fluoro-3-(trifluoromethyl)phenyl)carbamoyl)bicyclo[4.2.0]octa-1,3,5-trien-3-yl)carbamoyl)-4′-methoxy-[1,1′-biphenyl]-3-yl)-2-hydroxyacetic acid] |

Same assay, conditions: HEK293 cells stably expressing human RXFP1; phenylcyclohexyl (tetraline) examples

| Molecule | EC50 [nM] |
| --- | --- |
| COc1ccc(-c2cc([C@H](OC(=O)NC3CCC3)C(F)(F)F)ccc2F)cc1C(=O)Nc1cc2c(cc1C(=O)Nc1ccc(F)c(C(F)(F)F)c1)CCCC2 [Example 6, (S)-2,2,2-trifluoro-1-(6-fluoro-3′-((3-((4-fluoro-3-(trifluoromethyl)phenyl)carbamoyl)-5,6,7,8-tetrahydronaphthalen-2-yl)carbamoyl)-4′-methoxy-[1,1′-biphenyl]-3-yl)ethyl cyclobutylcarbamate] | 15 |
| COc1ccc(-c2cc(C(=O)O)ccc2F)cc1C(=O)Nc1cc2c(cc1C(=O)Nc1ccc(F)c(C(F)(F)F)c1)CCCC2=O [Example 18, 6-fluoro-3′-((3-((4-fluoro-3-(trifluoromethyl)phenyl)carbamoyl)-8-oxo-5,6,7,8-tetrahydronaphthalen-2-yl)carbamoyl)-4′-methoxy-[1,1′-biphenyl]-3-carboxylic acid] | 1100 |
| COc1ccc(-c2cc([C@H](O)C(F)(F)F)ccc2F)cc1C(=O)Nc1cc2c(cc1C(=O)Nc1ccc(F)c(C(F)(F)F)c1)CCCC2 [Example 4, (S)—N-(4-fluoro-3-(trifluoromethyl)phenyl)-3-(2′-fluoro-4-methoxy-5′-(2,2,2-trifluoro-1-hydroxyethyl)-[1,1′-biphenyl]-3-carboxamido)-5,6,7,8-tetrahydronaphthalene-2-carboxamide] | 860 |
| COc1ccc(-c2cc([C@H](OC(=O)Nc3ccccc3)C(F)(F)F)ccc2F)cc1C(=O)Nc1cc2c(cc1C(=O)Nc1ccc(F)c(C(F)(F)F)c1)CCCC2 [Example 5, (S)-2,2,2-trifluoro-1-(6-fluoro-3′-((3-((4-fluoro-3-(trifluoromethyl)phenyl)carbamoyl)-5,6,7,8-tetrahydronaphthalen-2-yl)carbamoyl)-4′-methoxy-[1,1′-biphenyl]-3-yl)ethyl phenylcarbamate] | 33 |
| COc1ccc(-c2cc(C(=O)O)ccc2F)cc1C(=O)Nc1cc2c(cc1C(=O)Nc1ccc(F)c(C(F)(F)F)c1)CCCC2 [Example 1, 6-fluoro-3′-((3-((4-fluoro-3-(trifluoromethyl)phenyl)carbamoyl)-5,6,7,8-tetrahydronaphthalen-2-yl)carbamoyl)-4′-methoxy-[1,1′-biphenyl]-3-carboxylic acid] | 390 |
| COc1ccc(-c2cc(C(N)C(=O)O)ccc2F)cc1C(=O)Nc1cc2c(cc1C(=O)Nc1ccc(F)c(C(F)(F)F)c1)CCCC2 (single isomer, unassigned) [Example 3, 2-amino-2-(6-fluoro-3′-((3-((4-fluoro-3-(trifluoromethyl)phenyl)carbamoyl)-5,6,7,8-tetrahydronaphthalen-2-yl)carbamoyl)-4′-methoxy-[1,1′-biphenyl]-3-yl)acetic acid] | 2300 |
| COc1ccc(C2=NOC3CNCC23)cc1C(=O)Nc1cc2c(cc1C(=O)Nc1ccc(F)c(C(F)(F)F)c1)CCCC2 (mixture of isomers) [Example 15, N-(4-fluoro-3-(trifluoromethyl)phenyl)-3-(2-methoxy-5-(3a,5,6,6a-tetrahydro-4H-pyrrolo[3,4-d]isoxazol-3-yl)benzamido)-5,6,7,8-tetrahydronaphthalene-2-carboxamide] | 3700 |
| COc1ccc(-c2cc(C(NC(=O)C3CCOCC3)C(=O)O)ccc2F)cc1C(=O)Nc1cc2c(cc1C(=O)Nc1ccc(F)c(C(F)(F)F)c1)CCCC2 (single isomer, unassigned) [Example 2, 2-(6-fluoro-3′-((3-((4-fluoro-3-(trifluoromethyl)phenyl)carbamoyl)-5,6,7,8-tetrahydro-naphthalen-2-yl)carbamoyl)-4′-methoxy-[1,1′-biphenyl]-3-yl)-2-(tetrahydro-2H-pyran-4-carboxamido)acetic acid] | 1.8 |
| COc1ccc(-c2cc(C(=O)NCC3CCC3)ccc2F)cc1C(=O)Nc1cc2c(cc1C(=O)Nc1ccc(F)c(C(F)(F)F)c1)CCCC2 [Example 8, N3′-(cyclobutyl-methyl)-6′-fluoro-N3-(3-((4-fluoro-3-(trifluoromethyl)phenyl)carbamoyl)-5,6,7,8-tetrahydro-naphthalen-2-yl)-4-methoxy-[1,1′-biphenyl]-3,3′-dicarboxamide] | 4200 |
| COc1ccc(C2=NOC3CC(CO)CC23)cc1C(=O)Nc1cc2c(cc1C(=O)Nc1ccc(F)c(C(F)(F)F)c1)CCCC2 (stereo not shown) [Example 12, N-(4-fluoro-3-(trifluoromethyl)phenyl)-3-(5-(5-(hydroxymethyl)-3a,5,6,6a-tetrahydro-4H-cyclopenta[d]-isoxazol-3-yl)-2-methoxybenzamido)-5,6,7,8-tetrahydronaphthalene-2-carboxamide] | 290 |
| COc1ccc(C2=NOC3CC(CO)CC23)cc1C(=O)Nc1cc2c(cc1C(=O)Nc1ccc(F)c(C(F)(F)F)c1)CCCC2 (single isomer, unassigned) [Example 14, N-(4-fluoro-3-(trifluoromethyl)phenyl)-3-(5-(5-(hydroxymethyl)-3a,5,6,6a-tetrahydro-4H-cyclopenta[d]-isoxazol-3-yl)-2-methoxybenzamido)-5,6,7,8-tetrahydronaphthalene-2-carboxamide] | 82 |
| COc1ccc(-c2cc([C@H](OC(=O)NC3CCC3)C(F)(F)F)ccc2F)cc1C(=O)Nc1cc2c(cc1C(=O)Nc1ccc(F)c(C(F)(F)F)c1)CCCC2=O [Example 17, (S)-2,2,2-trifluoro-1-(6-fluoro-3′-((3-(4-fluoro-3-(trifluoromethyl)phenyl)carbamoyl)-8-oxo-5,6,7,8-tetrahydronaphthalen-2-yl)carbamoyl)-4′-methoxy-[1,1′-biphenyl]-3-yl)ethyl cyclobutylcarbamate] | 22 |

Now from value to molecule:

| EC50 [nM] | Molecule |
| --- | --- |
| 2200 | COc1ccc(N2CCCS2(=O)=O)cc1C(=O)Nc1cc2c(cc1C(=O)Nc1ccc(F)c(C(F)(F)F)c1)CCCC2 [Example 20, 3-(5-(1,1-dioxidoisothiazolidin-2-yl)-2-methoxybenzamido)-N-(4-fluoro-3-(trifluoromethyl)-phenyl)-5,6,7,8-tetrahydronaphthalene-2-carboxamide] |
| 1300 | COc1ccc(-c2cnn(CC(=O)O)c2)cc1C(=O)Nc1cc2c(cc1C(=O)Nc1ccc(F)c(C(F)(F)F)c1)CCCC2 [Example 19, 2-(4-(3-((3-((4-fluoro-3-(trifluoromethyl)phenyl)carbamoyl)-5,6,7,8-tetrahydronaphthalen-2-yl)carbamoyl)-4-methoxyphenyl)-1H-pyrazol-1-yl)acetic acid] |

Same assay, conditions: HEK293 cells stably expressing human RXFP1; phenylcyclopentyl examples

| EC50 [nM] | Molecule |
| --- | --- |
| 230 | COc1ccc(-c2cc(C(=O)O)ccc2F)cc1C(=O)Nc1cc2c(cc1C(=O)Nc1ccc(F)c(C(F)(F)F)c1)CCC2=O [Example 26, 6-fluoro-3′-((6-((4-fluoro-3-(trifluoromethyl)phenyl)carbamoyl)-3-oxo-2,3-dihydro-1H-inden-5-yl)carbamoyl)-4′-methoxy-[1,1′-biphenyl]-3-carboxylic acid] |
| 3440 | COc1ccc(-c2cc(C(=O)O)ccc2F)cc1C(=O)Nc1cc2c(cc1C(=O)Nc1ccc(F)c(C(F)(F)F)c1)CCC2 [Example 24, 6-fluoro-3′-((6-((4-fluoro-3-(trifluoromethyl)phenyl)carbamoyl)-2,3-dihydro-1H-inden-5-yl)carbamoyl)-4′-methoxy-[1,1′-biphenyl]-3-carboxylic acid] |
